Values after ≈ are worked out from the molar mass of the structure shown.
Tests used:
[1] = system: methicillin-resistant Staphylococcus aureus (MRSA) ATCC43300; experiment: MIC, broth microdilution (Example 1); assay type: cell-based; details: for MIC: MRSA ATCC43300, MH-broth, 37° C., 18 hours
Protocol: Methicillin-susceptible Staphylococcus aureus (MSSA) NCTC8325 and methicillin-resistant Staphylococcus aureus (MRSA) ATCC43300 were used as bacteria. The bacteria of each type were cultured using Mueller-Hinton Broth (MH-broth, Difco) as a medium. Then, the minimum inhibitory concentration (MIC) of each of the EGCG derivatives was measured by a broth microdilution method in accordance with the Clinical and Laboratory Standards Institute (CLSI) guidelines (hereinafter the same).
First, each of the EGCG derivatives was dissolved in 100% dimethyl sulfoxide (DMSO, Wako Pure Chemical Industries, Ltd.) so that the concentration thereof became 5120 μg/ml. The resultant solution was diluted with DMSO or sterile distilled water so as to prepare two-fold dilution series of antibacterial agent solutions. […] Each of these antibacterial agent solutions was dispensed to wells of a 96-well plate. The concentration of the EGCG derivative in the antibacterial agent solution dispensed to the wells was set to be 10 times as high as the final concentration. On the other hand, the bacteria were cultured in the MH-broth at 37° C. overnight, and the thus-obtained pre-culture solution was diluted with a new MH-broth so that the concentration thereof in the MH-broth became 10^−4 (10^4-fold dilution), thus preparing a bacterial culture solution of about 1×10^5 CFU/ml (CFU: Colony Forming Unit, the number of viable cells). The bacterial culture solution was further added to each well, and the mixture was cultured at 37° C. for 18 hours. The ratio (volume ratio) between the antibacterial agent solution and the bacterial culture solution added to each well was set to 1:9 (the antibacterial agent solution:the bacterial culture solution), and the volume of the mixture of them per well was set to 100 μl in total. The final concentration of the EGCG derivative in the mixture was set to 8 μg/ml to 512 μg/ml, and the number of viable cells in the mixture was set to about 1×10^5 CFU/ml. Then, after the completion of the culture, the MIC was determined. Also, the turbidity (OD600 nm) was measured using a plate reader so as to identify minor differences.
As Comparative Example 1, the same procedures as in Example 1 were performed, except that unsubstituted EGCG was used as an antibacterial agent instead of the EGCG derivatives of Example 1. Furthermore, as a control, the same procedures as in Example 1 were performed, except that sterile distilled water, 100% DMSO, or 50% DMSO was used instead of the antibacterial agent solutions containing the EGCG derivatives.

MSSA ATCC25923 = experiment: Membrane damaging properties, SYTOX Green fluorescence (Example 4); assay type: cell-based, Staphylococcus aureus; details: for fluorescence intensity ratio of SYTOX Green (control PBS = 1): 37° C., 15 minutes, EGCG derivative 4-32, EGCG 8-128, NISIN 1-8 μg/ml, FIG. 3
Protocol: (§1) As an antibacterial agent, the EGCG-C16 prepared in Example 1 was used in Example 4; EGCG was used in Comparative Example 4; and membrane-damaging peptide NISIN (MP Biomedicals) was used in a reference example. Antibacterial agent solutions of EGCG-C16 and EGCG were prepared by dissolving them in DMSO so as to achieve top concentrations, respectively. An antibacterial agent solution of the other antibacterial agent was prepared by dissolving it in PBS and diluted with PBS as appropriate. The influence of DMSO used for dissolving the antibacterial agents also was considered.
MSSA ATCC25923 and MRSA ATCC43300 were subjected to shaking culture in MH-broths (Difco) until they reached a late stage in the exponential growth phase. The thus-obtained culture solutions were each centrifuged at 7000 rpm for 10 minutes, and bacterial cells that had settled were suspended in PBS. The suspension of the bacterial cells was added to wells of a 384 black plate, and each of the antibacterial agent solutions was further added thereto and mixed. The resultant mixture was incubated at 37° C. for 15 minutes. Subsequently, a dead cell-staining dye (trade name “SYTOX Green”, LONZA) was mixed in each well so that the concentration thereof became 10 μmol/l, and the resultant mixture was incubated at 37° C. for 10 minutes. […] On the other hand, as a control, the fluorescence intensity was measured in the same manner, except that PBS or 10% DMSO was added instead of the antibacterial agent solutions. Then, regarding each of the MSSA and MRSA, the ratio of the fluorescence intensity when each of the agents was added was calculated assuming that the fluorescence intensity obtained in the control (PBS) was 1.

MRSA ATCC43300 = experiment: as above; assay type: cell-based, Staphylococcus aureus; details: for fluorescence intensity ratio of SYTOX Green (control PBS = 1): 37° C., 15 minutes, EGCG derivative 4-32, EGCG 8-128, NISIN 1-8 μg/ml, FIG. 3
Protocol: as §1
MSSA ATCC25923 and MRSA ATCC43300 were subjected to shaking culture in MH-broths (Difco) until they reached a late stage in the exponential growth phase. The thus-obtained culture solutions were each centrifuged at 7000 rpm for 10 minutes, and bacterial cells that had settled were suspended in PBS. The suspension of the bacterial cells was added to wells of a 384 black plate, and each of the antibacterial agent solutions was further added thereto and mixed. The resultant mixture was incubated at 37° C. for 15 minutes. Subsequently, a dead cell-staining dye (trade name “SYTOX Green”, LONZA) was mixed in each well so that the concentration thereof became 10 μmol/l, and the resultant mixture was incubated at 37° C. for 10 minutes. The final concentrations of the respective antibacterial agents were as follows: 4, 8, 16, and 32 μg/ml for the EGCG derivative; 8, 16, 32, 64, and 128 μg/ml for EGCG; and 1, 2, 4, and 8 μg/ml for NISIN. […] On the other hand, as a control, the fluorescence intensity was measured in the same manner, except that PBS or 10% DMSO was added instead of the antibacterial agent solutions. Then, regarding each of the MSSA and MRSA, the ratio of the fluorescence intensity when each of the agents was added was calculated assuming that the fluorescence intensity obtained in the control (PBS) was 1.

[2] = system: Escherichia coli MG1655 (wild type); experiment: MIC, influence of multidrug efflux pump (Example 5); assay type: cell-based
Protocol: (§2) Using the EGCG derivatives, the minimum inhibitory concentration (MIC) was measured in the same manner as described in Section (2) of Example 2, except that Escherichia coli MG1655 (hereinafter referred to as a wild-type strain) and gene deletion strains of Escherichia coli MG1655 were used as the bacteria. The gene deletion strains were: strains obtained by deleting the efflux pump genes, namely, acrB, acrD, and acrEF, respectively, in Escherichia coli MG1655 (ΔacrD, ΔacrEF, and ΔacrB); and a strain obtained by deleting the outer membrane protein tolC gene that couples to proteins encoded by the efflux pump genes (ΔtolC).
(§3) As Comparative Example 5, the minimum inhibitory concentration (MIC) was measured in the same manner as in Example 5, except that EGCG was used instead of the EGCG derivative.

[3] = system: Escherichia coli MG1655 ΔacrB; experiment: as above; assay type: cell-based
Protocol: as §2, §3

[4] = system: Escherichia coli MG1655 ΔacrD; experiment: as above; assay type: cell-based
Protocol: as §2, §3

[5] = system: Escherichia coli MG1655 ΔacrEF; experiment: as above; assay type: cell-based
Protocol: as §2, §3

[6] = system: Escherichia coli MG1655 ΔtolC; experiment: as above; assay type: cell-based
Protocol: as §2, §3

`O=C(O[C@@H]1Cc2c(O)cc(O)cc2O[C@@H]1c1cc(O)c(O)c(O)c1)c1cc(O)c(O)c(O)c1` [EGCG, Epigallocatechin gallate, reference compound] was tested, and the MIC [1] was 256 µg/mL (≈ 558 µM), the “fluorescence intensity ratio of SYTOX Green (control PBS = 1)” value (“fluorescence intensity ratio” for short) (MSSA ATCC25923) was “smaller than 1” and the “fluorescence intensity ratio” value (MRSA ATCC43300) was “smaller than 1”. The MIC [2] was greater than 256 µg/mL, the MIC [3] was 128 µg/mL (≈ 279 µM) and the MIC [4] was greater than 256 µg/mL. For the same compound, the MIC [5] was greater than 256 µg/mL and the MIC [6] was 128 µg/mL (≈ 279 µM).

With EGCG-dioctanoate [EGCG-C8×2] the MIC [2] was greater than 128 µg/mL, the MIC [3] was 64 µg/mL and the MIC [4] was greater than 128 µg/mL. For the same compound, the MIC [5] was greater than 128 µg/mL and the MIC [6] was 32 µg/mL.

In the case of EGCG-palmitate [EGCG-C16], the MIC [1] is reported as 8 µg/mL, the “inhibition of propagation (MIC, turbidity OD600 nm)” value ([1]; MRSA, FIG. 1 and Table 3) is reported as “remarkable propagation-inhibiting effect” and the “fluorescence intensity ratio” value (MSSA ATCC25923) is reported as “very high fluorescence intensity ratio”. For the same compound, the “cell membrane-damaging action at high concentration (SYTOX Green)” value (MSSA ATCC25923; EGCG-C16 at 64 μg/ml) was “tendency for this action of EGCG-C16 to become weak”, the “fluorescence intensity ratio” value (MRSA ATCC43300) was “very high fluorescence intensity ratio” and the “cell membrane-damaging action at high concentration (SYTOX Green)” value (MRSA ATCC43300; EGCG-C16 at 64 μg/ml) was “tendency for this action of EGCG-C16 to become weak”. It also gave an MIC [2] greater than 128 µg/mL, an MIC [3] of 64 µg/mL and an MIC [4] greater than 128 µg/mL. The MIC [5] was greater than 128 µg/mL and the MIC [6] was 64 µg/mL.

In the case of EGCG-palmitoleate [EGCG-C16E], the MIC [2] is reported as greater than 128 µg/mL, the MIC [3] is reported as 64 µg/mL and the MIC [4] is reported as greater than 128 µg/mL. It also gave an MIC [5] greater than 128 µg/mL and an MIC [6] of 64 µg/mL.

Work on EGCG-stearate [EGCG-C18] yielded an MIC [1] of 32 µg/mL.

Work on EGCG-α-linoleate [EGCG-C18TE] yielded an MIC [2] greater than 128 µg/mL, an MIC [3] of 64 µg/mL and an MIC [4] greater than 128 µg/mL. The MIC [5] was greater than 128 µg/mL and the MIC [6] was 64 µg/mL.
